How the values were obtained:
[1] = system: promastigotes of Leishmania tropica (clinical field isolate KWH23); assay: Anti-leishmanial assay on promastigotes; type: cell-based; settings: for anti-leishmanial properties: at all four tested concentrations, 48 h
Procedure: The initial culture was raised in the 5 ml M-199 medium supplemented with 10% heat-inactivated fetal bovine serum (HI-FBS), 100 μg/ ml penicillin, 100 μg/ ml streptomycin, 50 μg/ ml kanamycin, and 5 μg/ ml of hemin in a 15-ml culture flask. The culture flask was kept in an incubator at 26°C, and the medium was changed every third day. The cultures were given enough time (10–14 days) to fully develop and promastigotes to reach the metacyclic stage. The culture was then sub-passaged by pouring the contents of the flask containing the promastigotes into a centrifuge tube. The tubes were then spun in a Sigma centrifuge at 2000 rpm for 12 min. After spinning, the medium was carefully poured off leaving the pellet only. This pellet was re-suspended in the 2–4 ml growth medium, and new cultures were established. The primary culture was used for sensitivity assays, and additional cultures were cryopreserved in liquid nitrogen at −196°C for future use.
The culture of L. tropica clinical field isolate KWH23 was established from already cryopreserved collection in the Department of Zoology, University of Peshawar. The initial culture was raised in the 5 ml M-199 medium supplemented with 10% heat-inactivated fetal bovine serum (HI-FBS), 100 μg/ ml penicillin, 100 μg/ ml streptomycin, 50 μg/ ml kanamycin, and 5 μg/ ml of hemin in a 15-ml culture flask. Two experiments were run at a time under the same conditions in 96-well flat-bottom plates. The promastigotes were counted in culture suspension by using the improved Neubauer hemocytometer. From the viable promastigotes bulk culture (4 × 10^6/ ml), 1 × 10^5 promastigotes/well in the 200 µL fresh M-199 medium were seeded in 96-well plates. Four different concentrations for each compound were applied, and one row of 12 wells was kept as a control with the growth medium only. The 96-well plates were incubated at 26°C for 48 h. After 48 h, the number of promastigotes in each well was counted microscopically using the improved Neubauer hemocytometer.

yeast-induced pyrexia = assay: Anti-pyretic studies, brewer's yeast-induced pyrexia; type: in vivo, Albino rats; settings: for activity against yeast-induced hyperthermia: 10 and 20 mg/kg s.c., 30, 60, and 120 min
Procedure: (§1) Albino rats (180–200 g) of either sex were used in all experiments. The animals were kept under standard laboratory conditions (25 °C and light/dark cycles, i.e., 12/12 h) and were fed with standard food and water ad libitum.
Albino rats of either sex weighing 180–200 g were used for anti-pyretic studies. The animals were divided into five groups with each group having six albino rats (n = 6). All the animals were given free access to food and water. Basal rectal temperature was measured using a digital clinical thermometer before injecting the yeast. Hyperthermia was induced in rats by sub-cutaneous (s.c.) injection of 20% aqueous suspension of brewer’s yeast (20 ml/ kg) in the back below the nape of the neck ([Loux et al., 1972]). Group 1 was treated with normal saline as a control, and group 2 was treated with indomethacin (10 mg/kg, s. c) as the standard drug, while the remaining groups 3–5 were treated with compound 1–5 (10 mg/ kg and 20 mg/ kg, s. c). After 24 h from the yeast injection, the rise in the rectal temperature was recorded at regular intervals of 30, 60, and 120 min after drug administration.

[2] = system: carrageenan-induced paw edema; assay: Carrageenan-induced paw edema studies; type: in vivo, Albino rats; settings: for percent inhibition of carrageenan-induced paw edema: right after the carrageenan injection, p < 0.05
Procedure: as §1
Albino rats of either sex (180–200 g) were used to assess anti-inflammatory activity. The animals were randomly divided into five groups with each group having six albino rats (n = 6). Pedal inflammations in albino rats of either sex were produced according to the method described by Winter et al. (1962). Group 1 was treated with normal saline (5 ml/ kg) and group 2 was treated with oxyphenylbutazone (10 mg/ kg, i.p.), while groups 3–5 were treated with compounds 1–5 (10 mg/ kg and 20 mg/ kg, i.p.). After 30 min, 0.05 ml 1% carrageenan sodium salt (BDH) was subcutaneously injected into the plantar aponeurosis tissue of the right hind paw of each rat. The inflammation was measured using a plethysmometer (Apelex, France) immediately after +3 h of carrageenan injection. The anti-inflammatory activity was calculated using the following formula: 100(1−a−x/b−y), where “b” is the mean paw volume of control rats after carrageenan injection and “y” before the injection; whereas “x” is the mean paw volume of treated rats before injection and “a” is the mean paw volume after carrageenan injection.

| Structure (SMILES) | inhibition of the promastigotes of Leishmania tropica ([1]; 48 h incubation) | anti-leishmanial properties [1] | rectal temperature in yeast-induced pyrexia (yeast-induced pyrexia; 10 and 20 mg/kg of body weight) | activity against yeast-induced hyperthermia (yeast-induced pyrexia) | anti-pyretic potential (yeast-induced pyrexia; at both concentrations (10 and 20 mg/kg)) | percent inhibition of carrageenan-induced paw edema ([2]; 10 mg/kg of chondrofolinol) | percent inhibition of carrageenan-induced paw edema ([2]; 20 mg/kg of chondrofolinol) | paw volume in carrageenan-induced paw edema ([2]; 10 and 20 mg/kg of body weight) |
| --- | --- | --- | --- | --- | --- | --- | --- | --- |
| COc1cc2c3cc1Oc1c(O)ccc(c1O)CC1c4c(cc(OC)c(OC)c4Oc4ccc(cc4)CC3N(C)CC2)CCN1C (centres unmarked) [Compound 1, chondrofolinol] | ~100% | strong anti-leishmanial properties | significantly reduced | significantly active | milder anti-pyretic potential | 32.12% | 53.34% | significantly reduced |
| COc1ccc2cc3[n+](cc2c1OC)CCc1cc2c(cc1-3)OCO2 [Compound 2, berberine] |  | strong anti-leishmanial properties |  | significantly active |  |  |  |  |
| COc1cc2c(cc1OC)-c1cc3ccc(OC)c(OC)c3c[n+]1CC2 [Compound 4, palmatine] |  | strong anti-leishmanial properties |  | significantly active |  |  |  |  |
| COc1ccc2c(c1OC)C(C(Cl)(Cl)Cl)N1CCc3cc4c(cc3C1=C2)OCO4 (centres unmarked) [Compound 5, 8-trichloromethyldihydroberberine] |  | strong anti-leishmanial properties |  | significantly active |  |  |  |  |

Source: publication PMC8719521, “Spectral, Anti-Inflammatory, Anti-Pyretic, Leishmanicidal, and Molecular Docking Studies, Against Selected Protein Targets, of a New Bisbenzylisoquinoline Alkaloid” (Frontiers in Chemistry, 2021)
